# Measurements as given in a melting point compilation (Tetko et al.; mined from patent text by program, amines drawn as free bases though some values may be those of a salt).
row,Structure (SMILES),melting point [°C]
1,O=C1c2ccccc2C(=O)c2c1c(Oc1ccc(CCCO)cc1)c1ccc(Sc3ccccc3)cc1c2Oc1ccc(CCCO)cc1,140 to 148
2,CC(C)(C)c1cc(CP(=O)(Oc2ccccc2)Oc2ccccc2)cc(C(C)(C)C)c1O,130
3,CN1CCNC1=C(Cl)[N+](=O)[O-],145 to 146
4,O=CCCC12CC(c3ccccc31)c1ccccc12,135 to 140
5,CCOC(=O)C(NC(C)=O)C(=O)c1ccccc1 (centres undefined),63 to 64
6,CC(C)(C)C(O)(COc1ccc(F)cc1)C(C)(F)n1cncn1 (centres undefined),90 to 93
7,CNC(=O)C1(C)Oc2c(C)c(C)c(O)c(C)c2CC1OC (centres undefined),139 to 140
8,CCOC(=O)C(=Cc1cc(C(=O)OCC)c(=O)n2ccccc12)C(=O)OCC,149 to 151
9,O=C(O)c1cc([N+](=O)[O-])ccc1Nc1ccc(CCc2ccc(Cl)c(Cl)c2)cc1,214 to 217
10,CN(C)C(=S)Oc1ccc(CCCCN)cc1,89 to 93
11,Cc1cc(O)c(CCN(C)C)c(C)c1C,72
12,O=S(=O)(NCc1ccc(Cl)cc1)c1c[nH]cn1,196 to 198
13,CC(C)C(=O)c1c(C(C)(C)C)cc(C=[N+]([O-])C(C)(C)C)cc1C(C)(C)C,197 to 208
14,COC(=O)C(=CNc1ccc(F)cc1)C(=O)C=Cc1ccc(NC(C)=O)cc1,161 to 164
15,O=C(Cc1ccccc1[N+](=O)[O-])c1ccccc1F,84 to 86
16,CN(C)CCCc1ccc(C(=O)/C=C/c2ccc(Cl)cc2)cc1,83 to 86
17,CCCCc1cn(Cc2ccc(-c3ccccc3C(=O)OC)cc2)c2cc(C(=O)N3CCCC3)ccc2c1=O,191
18,Cc1c(C)c(C(=O)CCl)c(C)c(C)c1Cl,94 to 96
19,O=C(O)C=CC1(Cc2ccccc2)C=CC=C(c2ccccc2)C1 (centres undefined),165 to 174
20,Cc1ccc(-c2ccccc2)cc1C#N,71 to 73
21,O=c1c2ccccc2sn1CCN1CCN(c2ccccc2)CC1,115 to 117
22,COCCN1CCc2cc(Nc3ncc(Cl)c(NC4(C(=O)NCC#N)CC4)n3)c(OC)cc2CC1,187 to 189
23,Clc1nc(Cl)nc(NNc2nc(Cl)nc(Cl)n2)n1,> 250

row,Structure (SMILES),melting point [°C]
1,CN(C)C(=O)Oc1ccc(C=O)c(O)c1,58 to 60
2,CCCCCCOc1cccc(C[C@H](NC(=O)c2cccc(-c3ncco3)c2)[C@H](O)CNCc2cccc(CC)c2)c1,117 to 120
3,COc1ccc(CCCCCCCOc2ccccc2)cc1,32 to 34
4,CC1(C)N=C(c2ccccc2Cl)c2cc([N+](=O)[O-])ccc2N(CCO)C1=O,192 to 194
5,O=C(c1ccccc1)C(c1ccc(Cl)cc1Cl)C(F)n1cncn1 (centres undefined),104 to 108
6,COc1ccc(C(=O)CN2CCN(C(c3ccccc3)c3ccccc3)CC2)c(OC)c1OC,119
7,COC(=O)C(O)C(CC1CCCCC1)NC(=O)C(Cc1c[nH]cn1)NC(=O)C(CC(=O)N1CCOCC1)Cc1cccc2ccccc12 (mixture of isomers),83 to 87
8,COC(=O)c1cccc(Oc2ccc([N+](=O)[O-])cc2C(=O)OC)c1,97 to 99
9,O=C(NCCO)C1CCNCC1,107 to 108
10,O=C1CNC=Nc2[nH]cnc21,260
11,NNc1c(Cl)c(Cl)nc(C(=O)O)c1Cl,166 to 168
12,CN(C)C(=O)c1cccc(C(C(N)=O)c2cccc(Br)c2)c1 (centres undefined),119 to 120
13,Cc1c(NCCCN2CCN(c3ccccc3O)CC2)n(C)c(=O)n(C)c1=O,203 to 205
14,CCCn1nc2c(N)nc3c(c2c1CCC1CCCCC1)CCCC3,173 to 174
15,CSc1cc2ccccc2cc1C=Cc1cc2ccccc2cc1SC,195 to 196
16,O=C(O)Cc1ccc2[nH]cc(CCNC(=O)OCc3ccccc3)c2c1,116 to 117
17,O=C(O)CCc1oc(Cl)nc1-c1ccc(Cl)cc1,169 to 170
18,CCCCCCCCCCCCCCCCCCNC(=O)NCCSc1ccc(O)cc1,121
19,Clc1ccc(N=C2NCCN2)c(Cl)c1Cl,161
20,COc1ccc(S)c(C(=O)O)c1,173 to 178
21,O=C(CC(=O)C1CC1)c1ccccn1,77 to 78
22,CC(NC(=O)OCc1ccccc1)C(=O)N1CC(=O)N(CC(N)=O)C1(C)C (centres undefined),206 to 210
23,CN1C(=O)[C@H](NC(=O)CCc2ccc(Cl)cc2Cl)N=C(c2ccccc2)c2cc(N)ccc21,179 to 180

row,Structure (SMILES),melting point [°C]
1,COc1ccc(CCN(C)CCCCc2ccc(NC(=O)c3cccc4c(=O)c5cc(F)ccc5sc34)cc2)cc1OC,145
2,ClCCCCOc1ccccc1/C=C/c1nc2ccccc2s1,98 to 100
3,CC(=O)Sc1ccc(C#C[Si](C)(C)C)cc1,45 to 47
4,COc1ccc2c(c1)c(Cc1cc(=O)n(C3CCCC3)[nH]1)c(C)n2C(=O)c1ccc(Cl)cc1,153 to 155
5,C=CCSc1ccc(-c2ccccc2)nn1,96 to 98
6,COc1cccc(OC2CN([C@H]3CC[C@@H](c4cc5cc(C#N)ccc5[nH]4)CC3)C2)c1,126 to 127
7,Cc1nc2c(N)nc3c(c2n1CCCCS(=O)(=O)C(C)C)CCCC3,177 to 178
8,CC(=O)OC1CC(CO)OC1n1ccc(=O)[nH]c1=O (centres undefined),148 to 149
9,OC(c1ccc2c(c1)CCN2Cc1ccccc1)(C(F)(F)F)C(F)(F)F,85 to 90
10,O=C(O)CS(=O)(=O)c1cc(NS(=O)(=O)c2cccs2)c2ccccc2c1O,190 to 192
11,CC(C)(C)OC(=O)c1ncn2c1CN=C(c1ccccc1)c1cc(Br)ccc1-2,222 to 223
12,O=C(O)CCc1cn(Cc2ccc(OCc3coc(-c4ccccc4)n3)cc2)nc1-c1cccs1,145 to 146
13,CC(=O)Nc1ccc(OCCOC(=O)CCCNC(=O)c2cc(OCc3ccccc3)ccc2OCc2ccccc2)cc1,141 to 143
14,CON(C)C(=O)Nc1ccc(CN2OCCC(C)(SC)C2=O)c(Cl)c1 (centres undefined),88 to 91
15,O=C1NC(=O)C(Cc2ccc(NC(=O)c3sc(Nc4ccccc4)c4c3CCc3cnoc3-4)cc2)S1 (centres undefined),151 to 152
16,Nc1ccc(N=Nc2ccccc2)cc1Cl,152 to 153
17,CC(C)(C)c1cc(CP(=O)(O)c2ccccc2)cc(C(C)(C)C)c1O,185 to 186
18,Cc1cccc2c1NC(C)c1nnnn1-2 (centres undefined),159 to 161
19,COCOc1cccc(ON=C(C)C)c1C#N,62 to 64
20,CCOC(=O)C(Cc1cscn1)NC(C)=O (racemic),58 to 62
21,CS(=O)(=O)N1C[C@H](S)C[C@H]1COC(=O)Nc1ccccc1,148

# Continued, values first:
row,melting point [°C],Structure (SMILES)
1,126 to 129,CCC1c2cccn2-c2ccc(C(F)(F)F)cc2N1S(=O)(=O)c1ccc(OC)c(Cl)c1 (centres undefined)
2,252 to 253,Cc1nc(-c2ccc([N+](=O)[O-])cc2)sc1C(=O)O
3,164 to 167,CCCn1c(=O)c(C(=O)OCC)c(O)c2cnc(-c3ccccc3)nc21
4,> 250,Cc1c(C(=O)O)nc2c(=O)[nH]c3cc(C(F)(F)F)ccc3n12
5,196 to 197,O=c1nc(-c2c(F)cccc2F)oc(=O)n1-c1ccc(Cl)c(Cl)c1
6,258 to 259,COc1ccc(-c2cc(C#N)c(=O)[nH]c2C)cc1
7,195 to 197,CCOC(=O)c1cccc(NC(=O)N2CCc3cc(SC)c(C(F)(F)F)cc32)c1
8,158 to 159,N#CCCNC(=O)c1cccc(-c2ccc(F)c3cc(Cc4cccc(C(F)(F)F)c4)oc23)c1
9,155 to 158,CC(C)(O)COc1c(-c2ccc(S(N)(=O)=O)cc2)cnn(-c2ccc(F)cc2)c1=O
10,189,CC1(C)Oc2ccc([N+](=O)[O-])cc2C(n2ccccc2=O)=C1CNC(=O)C(F)(F)F
11,188 to 190,CCC(=O)Nc1c(C(=O)c2cc(Cl)ccn2)[nH]c2cc(Cl)ccc12
12,143 to 146,CCCCc1ncc(/C=C2\C(=O)NC(=O)N2CCC(C)C)n1Cc1ccc(C(=O)O)cc1
13,197 to 198,Cc1csc(NC(=O)c2ccc(CN3CCN(c4nc(C)cs4)C3=O)cc2)n1
14,> 260,O=C1C(=O)c2c(nc3ccc(Cl)cn23)-c2cccc(Cl)c21
15,106,O=C(O)c1ccc(CCNC(=O)C2Cc3ccccc3N2S(=O)(=O)c2ccc(-c3cccc(C(F)(F)F)c3)cc2)cc1 (centres undefined)
16,> 280,Cc1cccc(C(=O)c2[nH]c3cc(Cl)ccc3c2NC(N)=O)c1

row,melting point [°C],Structure (SMILES)
1,124 to 127,CN(C)c1cccc(-n2c(=O)c(CCCc3ccncc3)cc3cccnc32)c1
2,148 to 150,CC(=O)c1cnc2c(c1)oc(=O)n2CCc1ccncc1
3,131 to 132,N#Cc1cc(-c2ccc(Cl)cc2)nc(Oc2ccc(F)c(C(F)(F)F)c2)n1
4,75 to 77,CC(=O)OCCCn1nc(-c2cc(C(C)(C)C)c(O)c(C(C)(C)C)c2)c2cccnc21
5,335 to 355,Cc1c(-c2ccnc(C(F)(F)F)c2)sc2nc(N)[nH]c(=O)c12
6,175,CCCCc1ncc(CC(Cc2cccs2)C(=O)O)n1Cc1ccc(C(=O)O)cc1 (centres undefined)
7,95 to 98,CCn1ncc2c(Cl)c3ccc(OC)cc3nc21
8,> 250,O=C(O)Cc1c(C(=O)c2ccc3c(c2)OCCO3)[nH]c2ccc(C(F)(F)F)cc12
9,200,COc1cc(S(C)(=O)=O)ccc1-n1nc(C(F)(F)F)cc1-c1ccc(-c2ccco2)cc1
10,146 to 147,CCOc1ccccc1-c1nc2n(C3CCCC3)[nH]c(CC)c-2c(=O)n1
11,118 to 122,COc1ccc(-c2nc(C(=O)N3CCOCC3)sc2-c2ccc(OC)cc2)cc1
12,161,CC(O)C(CCCc1ccccc1)n1ncc2c(=O)[nH]c(Cc3ccc(Cl)c(Cl)c3)nc21 (centres undefined)
13,194 to 195,CCOC(=O)C1=CNc2cccnc2S1
14,155 to 156,CC(C)Oc1ccc2c(Cl)nc(C(=O)NCCO)c(O)c2c1
15,122 to 125,Cc1ccc(OCCCCCNc2cccc3c2C(=O)c2cccc4[nH]nc-3c24)cc1
16,273 to 275,CS(=O)(=O)NC(=O)/C(C#N)=C/c1cn(-c2cc(C(F)(F)F)cc(C(F)(F)F)c2)nc1-c1cccc(Cl)c1
